Measurements from PubChem BioAssay AID504497 (Sanford-Burnham Center for Chemical Genomics, 2011).

Biological target: Sentrin-specific protease 7 (Homo sapiens) (UniProt Q9BQF6)
Experiment: SENP7 protease inhibitors, SAR follow-up, biochemical, luminescence (AID 504497)
Conditions: recombinant SENP7, Z-RLRGG-aminoluciferin luminescence

Sequence of Sentrin-specific protease 7 (Homo sapiens) (Q9BQF6 706-1050 limits assumed): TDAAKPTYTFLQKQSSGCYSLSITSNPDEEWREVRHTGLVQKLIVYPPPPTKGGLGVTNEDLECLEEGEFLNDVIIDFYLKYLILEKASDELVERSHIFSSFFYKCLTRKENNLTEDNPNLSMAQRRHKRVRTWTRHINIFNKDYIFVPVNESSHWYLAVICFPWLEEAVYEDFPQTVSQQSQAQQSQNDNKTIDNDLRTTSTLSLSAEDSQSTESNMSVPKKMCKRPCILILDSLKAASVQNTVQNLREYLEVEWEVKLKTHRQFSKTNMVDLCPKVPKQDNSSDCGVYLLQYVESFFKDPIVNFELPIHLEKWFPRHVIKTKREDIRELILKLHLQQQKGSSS

- IC50: 5.66 µM
Compound: N#Cc1c(NC(=O)CSc2ncn[nH]2)sc2c1CCCCC2
